Reference: PubChem BioAssay AID1919001 (Molecular Pharmacology Branch, DTP, NCI, 2023)
Several values for one entry are separate records, joined by “and”; a condition that tells them apart may be missing. Equal values may be shown once. Values belong to the compound of their own block, whether it stands above or below them.

Tested on: 699152-130-R-J1-PDC complex spheroid growth
Test: Anticancer human tumor 699152-130-R-J1-PDC patient-derived pancreatic carcinoma cell line growth inhibition [AhR]
Details: for viability, T/C: stronger effect = lower value
Text: Multicellular complex tumor spheroid response to aryl hydrocarbon receptor antagonists in combination with a variety of drugs and investigational agents in selected tumor cell lines
The current study was undertaken to assess response to aryl hydrocarbon receptor antagonists in combination with standard-of-care drugs and investigational agents in solid tumor complex spheroid models. Complex spheroids include a stromal component modeled by human endothelial cells (HUVEC) and fibroblasts modeled by human mesenchymal stem cells (MSCs). The concentration ranges selected for each drug and investigational agent were based upon clinically achievable concentrations if the clinical Cmax of the agent was known.
Compounds. The drugs and investigational agents: BAY 2416964 (NSC825713), GNF351 (NSC835774), CH-223191 (NSC835775), CPI-455 (NSC825282), aza-TdCyd (NSC777586), decitabine (NSC127716), belinostat (NSC758774), entinostat (NSC756642), pevonedistat (NSC761192), tazemetostat (NSC777109), talazoparib (NSC765396), olaparib (NSC753686), selinexor (NSC780203), nedisertib (M3814, NSC802822), bortezomib (NSC756655), venetoclax (NSC766270), doxorubicin (NSC123127), elimusertib (BAY189344, NSC800525), ceralasertib (AZD6738, NSC777638), TAK-243 (NSC785004), alisertib (NSC759677), etoposide (NSC141540), topotecan (NSC609699), eribulin (NSC707389), gemcitabine (NSC613327), carboplatin (NSC241240), cisplatin (NSC119875), and SN-38 (NSC673596) were obtained from the National Cancer Institute (NCI) Developmental Therapeutics Program Chemical Repository (32). The FDA-approved anticancer drug set is available from the Developmental Therapeutics Program at https://dtp.cancer.gov/organization/dscb/obtaining/available plates.htm. […] The stock solutions were prepared in dimethyl sulfoxide (DMSO, Sigma-Aldrich, St. Louis, MO, cat. D2650), except for the platinum compounds which were prepared in saline (Quality Biological, Gaithersburg, MD, cat. 114-055-101), at 800-fold the tested concentration and stored at -70 degrees C prior to their use. All drugs and investigational agents were tested over a range starting from a high concentration at or near the clinical Cmax and decreasing in half-log increments. If the clinical Cmax for an agent had not been determined, the highest concentration tested was 10 microM (Table 1).
Cell Culture. All cells were maintained in an incubator at 37 degrees C and 5% CO2 with 95% humidity. The PDC lines were cultured according to standard operating procedures established by the NCI PDMR (https://pdmr.cancer.gov). Briefly, all PDCs were thawed and cultured in Matrigel-coated flasks prepared with a working solution of 1X Ham's F-12 nutrient mix, without supplementation (Invitrogen, Waltham, MA, cat. 11765054), 100 U/mL penicillin-streptomycin (Invitrogen, cat. 15140122), and 2.5% Matrigel (Corning Inc., Corning, NY, cat. 354248) for the first three passages. All PDCs were cultured in complete DMEM/F-12 media containing advanced DMEM/F-12 (Invitrogen, cat. 12634028), 4.9% defined fetal bovine serum, heat inactivated (HyClone Laboratories Inc., Logan, UT, cat. SH30070.03HI), 389 ng/mL hydrocortisone (Sigma-Aldrich, cat. H4001), 9.7 ng/mL human EGF recombinant protein (Invitrogen, cat. PHG0313), 23.4 microg/mL adenine (Sigma-Aldrich, cat. A2786), 97.3 U/mL penicillin-streptomycin (Invitrogen, cat. 15140122), 1.9 mM L-glutamine (Invitrogen, cat. 25030081), and 9.7 microM Y-27632 dihydrochloride (Tocris Bioscience, Bristol, United Kingdom, cat. 1254). The PDCs were cultured in complete DMEM/F12 media without 10 microM Y-27632 dihydrochloride for at least two passages prior to the screen. The established cell lines NCI-H1341 and […] were cultured in DMEM/F-12, HEPES (Invitrogen, cat. 11330032), 5% defined fetal bovine serum (HyClone Laboratories Inc., cat. SH30070.03), ITS premix universal culture supplement [insulin (5 microg/mL), transferrin (5 microg/mL), and selenious acid (5 ng/mL)] […]
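Further: compound exposure lasted 7 days after spheroids had grown for 3 days.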

- IC50 (curve of compound): 16.9 nM and 14.5 nM and 6.7 nM
SMILES: CC(C)CC(NC(=O)C(Cc1ccccc1)NC(=O)c1cnccn1)B(O)O (configuration not stated)
- viability, T/C (compound 0.000949 µM): 107% and 97.5% and 95.3%
- viability, T/C (compound 0.003 µM): 107% and 101% and 94.5%
- viability, T/C (compound 0.00949 µM): 99.3% and 79% and 30.8%
- viability, T/C (compound 0.03 µM): 1.12% and 0.95% and 0.7%
- viability, T/C (compound 0.0949 µM): 0.51% and 0.48% and 0.69%
- viability, T/C (compound 0.3 µM): 0.46% and 0.87% and 0.49%

- IC50 (curve of compound): > 10000 nM
SMILES: CC(C)c1c(-c2ccccc2)nc2c(C#N)c[nH]n2c1=O
- viability, T/C (compound 0.0316 µM): 108% and 92.1% and 105%
- viability, T/C (compound 0.1 µM): 102% (2×) and 87.1%
- viability, T/C (compound 0.316 µM): 109% and 90% and 107%
- viability, T/C (compound 1 µM): 97.5% and 90.3% and 96%
- viability, T/C (compound 3.16 µM): 112% and 104% and 99.7%
- viability, T/C (compound 10 µM): 107% and 88.4% and 99.3%

- IC50 (compound alone, run of 07/12/2022): > 10000 nM
SMILES: CC(CO)NC(=O)c1cc(-c2ccc(Cl)cc2)nn(-c2cnn(C)c2)c1=O (configuration not stated)
- viability, T/C (compound 0.1 µM): 92.1% [middle of 21 runs]

- IC50 (curve of compound): > 10000 nM
SMILES: CC1(C)CCC(CN2CCN(c3ccc(C(=O)NS(=O)(=O)c4ccc(NCC5CCOCC5)c([N+](=O)[O-])c4)c(Oc4cnc5[nH]ccc5c4)c3)CC2)=C(c2ccc(Cl)cc2)C1
- viability, T/C (compound 0.0316 µM): 99.2% and 99% and 94.1%
- viability, T/C (compound 0.1 µM): 122% and 97.6% and 103%
- viability, T/C (compound 0.316 µM): 110% and 102% (2×)
- viability, T/C (compound 1 µM): 100% and 106% and 101%
- viability, T/C (compound 3.16 µM): 106% and 89.5% and 115%
- viability, T/C (compound 10 µM): 94% and 64.3% and 58.6%

- IC50 (curve of compound): > 1000 nM
SMILES: CC1COCCN1c1cc(-c2ccnn2C)c2ccnc(-c3ccn[nH]3)c2n1 (configuration not stated)
- viability, T/C (compound 0.00316 µM): 106% and 92.5% and 103%
- viability, T/C (compound 0.01 µM): 106% and 96.9% and 109%
- viability, T/C (compound 0.0316 µM): 95.6% and 95.9% and 92.5%
- viability, T/C (compound 0.1 µM): 85.9% and 90.6% and 95.9%
- viability, T/C (compound 0.316 µM): 72.5% and 84.8% and 77.6%
- viability, T/C (compound 1 µM): 59.9% and 58.5% and 61.5%

- IC50 (curve of compound): > 10000 nM
SMILES: CC1COCCN1c1cc(C2(S(C)(=N)=O)CC2)nc(-c2ccnc3[nH]ccc23)n1 (configuration not stated)
- viability, T/C (compound 0.0316 µM): 100% and 99.4% and 98.3%
- viability, T/C (compound 0.1 µM): 103% and 95.1% and 112%
- viability, T/C (compound 0.316 µM): 91.5% and 95.4% and 103%
- viability, T/C (compound 1 µM): 96.7% and 88.4% and 104%
- viability, T/C (compound 3.16 µM): 93% and 82.9% and 89.2%
- viability, T/C (compound 10 µM): 78% and 67.5% and 71.1%

- IC50 (curve of compound): > 3000 nM
SMILES: CCN(c1cc(-c2ccc(CN3CCOCC3)cc2)cc(C(=O)NCc2c(C)cc(C)[nH]c2=O)c1C)C1CCOCC1
- viability, T/C (compound 0.00949 µM): 101% and 104% and 103%
- viability, T/C (compound 0.03 µM): 95.7% and 110% and 98.5%
- viability, T/C (compound 0.0949 µM): 111% and 87.2% and 115%
- viability, T/C (compound 0.3 µM): 93.7% and 115% and 95%
- viability, T/C (compound 0.949 µM): 107% and 114% and 113%
- viability, T/C (compound 3 µM): 105% and 111% and 113%

- IC50 (curve of compound): > 100 nM
SMILES: CC[C@@]1(O)C(=O)OCc2c1cc1n(c2=O)Cc2cc3c(CN(C)C)c(O)ccc3nc2-1
- viability, T/C (compound 0.000316 µM): 103% and 108% and 86.6%
- viability, T/C (compound 0.001 µM): 91.2% and 96.4% and 99%
- viability, T/C (compound 0.00316 µM): 104% and 102% and 90%
- viability, T/C (compound 0.01 µM): 103% (2×) and 83.5%
- viability, T/C (compound 0.0316 µM): 90.8% and 91.3% and 70%
- viability, T/C (compound 0.1 µM): 62.8% and 70.9% and 53.5%

- IC50 (curve of compound): 60.4 nM and 20 nM and 27.7 nM
SMILES: CCc1c2c(nc3ccc(O)cc13)-c1cc3c(c(=O)n1C2)COC(=O)[C@]3(O)CC
- viability, T/C (compound 0.000949 µM): 85.1% and 90.1% and 88.5%
- viability, T/C (compound 0.003 µM): 86.8% and 87.7% and 95.1%
- viability, T/C (compound 0.00949 µM): 66.3% and 61.5% and 59.9%
- viability, T/C (compound 0.03 µM): 55.8% and 44.3% and 57.9%
- viability, T/C (compound 0.0949 µM): 49% and 43.6% and 52%
- viability, T/C (compound 0.3 µM): 33.9% and 33.8% and 38%

- IC50 (curve of compound): > 10000 nM and 4090 nM
SMILES: COc1cc(C2c3cc4c(cc3C(OC3OC5COC(C)OC5C(O)C3O)C3COC(=O)C23)OCO4)cc(OC)c1O (configuration not stated)
- viability, T/C (compound 0.0316 µM): 97.3% and 94.8% and 92.4%
- viability, T/C (compound 0.1 µM): 94.7% and 101% and 86.3%
- viability, T/C (compound 0.316 µM): 76.1% and 83.2% and 73.8%
- viability, T/C (compound 1 µM): 66.5% and 70.9% and 62.2%
- viability, T/C (compound 3.16 µM): 68.3% and 64.6% and 51.9%
- viability, T/C (compound 10 µM): 53.4% and 53.8% and 44.4%

- IC50 (curve of compound): > 10000 nM
SMILES: COc1cc(Nc2ncc3c(n2)-c2ccc(Cl)cc2C(c2c(F)cccc2OC)=NC3)ccc1C(=O)O
- viability, T/C (compound 0.0316 µM): 97.6% and 87.1% and 94%
- viability, T/C (compound 0.1 µM): 71.4% and 74.1% and 85.8%
- viability, T/C (compound 0.316 µM): 80.8% and 74.1% and 72%
- viability, T/C (compound 1 µM): 60.1% and 59.5% and 65.4%
- viability, T/C (compound 3.16 µM): 58.4% and 63% and 64.4%
- viability, T/C (compound 10 µM): 55.9% and 54.8% and 60.7%
